Results on 3 compounds are retold here after patent US11357756B2, “Anesthetic compositions and methods comprising imidazoline compounds” (Warsaw Orthopedic, Inc., priority 2017, dated 2022).

Assay [1] relates to contralateral sciatic nerve. Briefly: Evoked action potentials, contralateral sciatic nerve. The format is in vivo, male Sprague Dawley (SD) rats. As to the method: (§1) It is noted that alpha 2 adrenergic receptors are not expressed along the peripheral axons of the nerve. They are on nerve endings and in the spinal cord, where peripheral nerves synapse with interneurons in the dorsal horn. There also may be receptor-mediated effects on immunoinflammatory cells. […] However, there was no effect on the left sciatic nerve.
(§2) Methods: Peripheral nerve function was assessed by evoked action potentials (sciatic nerve) as well as spinal somatosensory evoked potentials in male Sprague Dawley (SD) rats. The tibial nerve was stimulated with 10 milliamperes (mA) constant current delivered with platinum micro-electrodes placed proximal to the internal ankle. Recording electrodes were placed near the proximal sciatic nerve at the sciatic notch (ipsilateral and contralateral nerves) and over the L5 interlaminar space. Measurements were obtained with a Biopac MP36 amplifier and data acquisition unit (Biopac Systems, Goleta, Cal). Following collection of baseline data, test solutions were administered directly into the subparaneural compartment of the right sciatic nerve, approximately 0.5 cm proximal to the tibial/fibular bifurcation, using a Hamilton HPLC injection syringe (20 μl, injection volume). Saline served as the negative control and commercial 2% lidocaine for injection served as the positive control.
(§3) FIG. 21 depicts representative compound action potential traces (CAP), sciatic nerve. A stimulating electrode delivered 10 mAMP current to the distal tibial nerve near the internal ankle, and a recording electrode was placed near the proximal sciatic nerve (at the sciatic notch). Following baseline recordings (top row), test solution was injected directly into the sciatic nerve (20 μl volume). Evoked compound action potentials at 3 minutes and approximately 50 minutes post-injection appear in the middle and bottom rows, respectively.

In assay [2] the test system is sciatic nerve. Briefly: Evoked compound action potentials (CAP), ipsilateral sciatic nerve after intraneural injection. In kind it is in vivo, male Sprague Dawley (SD) rats. The note with it: for effect of yohimbine pre-administration on elimination of evoked sciatic action potentials by clonidine: 1 mg yohimbine SQ 5 minutes prior to 500 μg intraneural clonidine, HCL.
Source text: as §1
2 m Amp stimulation in the ankle causes the action potential to propagate up to the tibial nerves and then the sciatic nerve to the dorsal horn of the spinal cord in the rat model.
as §2, §3

Assay [3] concerns sciatic nerve. The assay is described as follows: Spinal somatosensory evoked potentials (SSEP) after intraneural sciatic injection. In kind it is in vivo, male Sprague Dawley (SD) rats. As to the method:
as §2

The subject of the next assay is incisional pain model. As to conditions: no temporal relationship to systemic exposure; cited from earlier work.
Setting [4] is: commercial 2% lidocaine for injection, 20 μl intraneural.
Setting [5] is: intraneural injection, 20 μl, 4 parameter non-linear regression.

Entries after “also recorded” stand apart in the source; their conditions may differ. Structures can show the parent of a compound that is named as a salt.

For `CCN(CC)CC(=O)Nc1c(C)cccc1C` [lidocaine], in assay [1] (setting [4]), the “effect on the contralateral sciatic nerve” value was “did not affect”. Moreover, the “time through which sciatic evoked potential amplitude differed from control (p<0.05)” value in the assay on sciatic nerve [2] (2% lidocaine) is 35 min. Further, the “time for which compound action potentials in the ipsilateral sciatic nerve and spine were eliminated” value with sciatic nerve [2] (setting [4]) is more than 20 min. Moreover, the “time over which nerve function recovered” value in the assay with sciatic nerve [2] (positive control 2% lidocaine (Example 1)) is “approximately one hour”.

On to `COC(=O)[C@@H]1[C@H]2C[C@H]3c4[nH]c5ccccc5c4CCN3C[C@@H]2CC[C@@H]1O` [yohimbine HCL], for which the “effect of yohimbine pre-administration on reduction in spinal SEP amplitude by clonidine” value with sciatic nerve [3] (1 mg yohimbine prior to 500 μg intraneural clonidine) is “no effect”. The “effect of yohimbine pre-administration on elimination of evoked sciatic action potentials by clonidine” value with sciatic nerve [2] is given as “unaffected; also recorded: no effect”; in the assay with sciatic nerve [2] (listed as yohimbine), “no effect”. For the same compound, in the assay on sciatic nerve [2] (pre-administration t=(−)10 minutes), the “effect of yohimbine pre-administration on sciatic nerve block duration by clonidine” value is given as “did not inhibit”.

`Clc1cccc(Cl)c1N=C1NCCN1` [clonidine, 2,6-dichloro-N-2-imidazolidinyldenebenzenamine]: the “animals in which spinal somatosensory evoked potentials were eliminated” value with sciatic nerve [3] (500 μg intraneural) is given as 3 out of 4. Moreover, the “EC50 for spinal somatosensory evoked potentials” value in the assay with sciatic nerve [3] (setting [5]) is 118 µg. In addition, the “effect on the contralateral sciatic nerve” value was “no effect” in assay [1] (500 μg intraneural) and “not affected” in assay [1] (any dose of clonidine (50-500 μg), including spinal recordings following contralateral stimulation). For the same compound, the “effect on the left sciatic nerve” value in assay [1] (injected into the right sciatic nerve (Example 1)) was “no effect”. In the assay with sciatic nerve [2] (50 μg intraneural), the “effect on CAP amplitude” value was “no discernable effect”. Moreover, the “time through which sciatic evoked potential amplitude differed from control (p<0.05)” value amounted to 7 min with sciatic nerve [2] (100 μg), 18 min with sciatic nerve [2] (200 μg) and 35 min in the assay on sciatic nerve [2] (500 μg). Moreover, the “effect on action potential (CAP) amplitude” value with sciatic nerve [2] (100 μg intraneural, versus control, 3 minutes) is listed as “significant reduction; also recorded: significantly blunted”; in the assay with sciatic nerve [2] (200 μg intraneural), “significantly greater reduction”; with sciatic nerve [2] (200 μg intraneural, listed as clonidine HCL) it was “virtually eliminated”. In the assay on sciatic nerve [2] (500 μg intraneural), the “effect on compound action potentials in the ipsilateral sciatic nerve” value is reported as “reliably eliminated”. Moreover, the “doses at which an anesthetic like effect was observed” value in the assay with sciatic nerve [2] (Example 1, clinically relevant doses) is less than 100 µg. The “dose injected directly into nerve that eliminates the action potential” value with sciatic nerve [2] (Example 2, 2 m Amp stimulation in the ankle) was not below 50 µg. For the same compound, the duration of effect entry with sciatic nerve [2] (Example 2, 500 mcg lasts a lot longer than 50 mcg) is “proportional to dose”. In addition, the “nerve conduction velocity as nerve fibers return to function” value with sciatic nerve [2] (higher doses) was “approximately normal”. In addition, the “effect on propagation of action potentials, right sciatic nerve” value in the assay on sciatic nerve [2] (injected directly into the right sciatic nerve of the rat (Example 1)) was “blocked the ability of the nerve to propagate action potentials to the spinal cord”. Besides, the “EC50 for evoked compound action potentials in the sciatic nerve” value with sciatic nerve [2] (setting [5]) came to 71 µg. The “effect on nerve conduction velocity (ipsilateral sciatic nerve)” value in the assay with sciatic nerve [2] (lower doses, fibers that continue to propagate action potentials) was “modest”. Moreover, the “skin concentrations associated with analgesic effect” value in the assay with incisional pain model is listed as not below 10 ng/g.
